We go through three compounds from patent publication US20200023003A1 (FENNEC PHARMACEUTICALS INC., priority 2018, published 2020).

The text on data set [1]: It is a white to off-white crystalline solid, that is soluble in water, but insoluble in alcohol. The aqueous solution is practically neutral with a pH ranging from 6.5 to 9.0. The molecular formula is Na2S2O3. It has a molecular weight of 158.11 g/mol. The structural formula is: […]
A short description of data set [2]: Dynamic vapor sorption (DVS) isotherm. To be noted: for DVS weight loss upon desorption: hysteresis observed.
The conditions of data set [3]: for Cisplatin Concentration: 24° C. As for the experimental part: The method uses a Waters Acquity H-Class HPLC system with an Imtakt Scherzo SW-C18 mixed mode column. The HPLC method conditions are outlined in Table 7. […] This range covers greater than two orders of magnitude at dose-relevant concentrations.
Each sample was transferred to an HPLC vial and placed in an autosampler chamber held at 24° C. Samples were injected onto the HPLC system approximately every 30 minutes to obtain 4 time-points for each sample. A gradient was run and the retention time and peak area were obtained.

Data set [4] relates to pediatric patients being treated with platinum based chemotherapeutics. An excerpt:
Reference is made to International Patent Application Publication No. WO 2019/108592, which is a continuation of U.S. patent application Ser. No. 15/826,243, filed on Nov. 29, 2017, both of which are incorporated by reference herein in their entirety.

Data set [5] has as its system pediatric patients being treated with a platinum based chemotherapeutic.
Text: These adverse events comprise grade 3 or grade 4 neutropenia, reduced glomerular filtration rates, increased serum creatinine, infection, hypomagnesemia, hypernatremia, vomiting, or nausea.
The conditions of data set [6]: animals.
For data set [7] the following is noted: cited from earlier work.
Data set [8] deals with small cell lung cancer cell cultures. To be noted: cited from earlier work.
Setting [9] is: thiosulfate:cisplatin 5:1 (n = 2).
The mark [10] stands for this setting: thiosulfate:cisplatin 6:1 (n = 2).
Setting [11] is: thiosulfate:cisplatin 10:1 (n = 2).

Values joined by “and” are separate entries in the source; they are usually repeats but may differ in a detail not shown here. Equal values may be shown once. Read-outs that look alike come from different tables or passages of the source.

With `O=S([O-])([O-])=S.[Na+].[Na+]` [anhydrous sodium thiosulfate, Sodium thiosulfate anhydrous], in data set [1] (alcohol), the solubility in alcohol result is “insoluble”. For the same compound, the solubility in water result in data set [1] (water) is listed as “soluble”. The “DVS weight change upon equilibration to 0% relative humidity” value in data set [2] (0% relative humidity) is reported as “minimal weight change”. In addition, in data set [2], the “DVS weight loss upon desorption” value is listed as 51% and the “DVS weight gain upon sorption” value was 165%.
For `O.O.O.O.O.O=S([O-])([O-])=S.[Na+].[Na+]` [sodium thiosulfate pentahydrate], in data set [2], the “DVS weight loss upon desorption” value was 51% and the “DVS weight gain upon sorption” value amounted to 81%. The “DVS weight loss upon drying” value in data set [2] (drying) amounted to 27%.
For the compound Sodium thiosulfate [STS], the “Half-life (time to reach 333/2 μM cisplatin)” value in data set [3] (setting [9]) is 3.3 h; in data set [3] (setting [10]), 3.07 h; in data set [3] (setting [11]) it was 2.27 h. The “Slope (linear regression of cisplatin conc. vs. time)” value in data set [3] (setting [9]) is reported as −0.80 Cisplatin Area/min; in data set [3] (setting [10]) it was −0.87 Cisplatin Area/min; in data set [3] (setting [11]), −1.13 Cisplatin Area/min. Further, the “Cisplatin Concentration” value in data set [3] (thiosulfate:cisplatin 5:1, 4 min) is 323.7 µM; in data set [3] (thiosulfate:cisplatin 5:1, 37 min), 294.2 µM and 294.0 µM; in data set [3] (thiosulfate:cisplatin 5:1, 70 min), 266.8 µM and 268.0 µM; in data set [3] (thiosulfate:cisplatin 5:1, 103 min), 243.7 µM and 245.3 µM; in data set [3] (thiosulfate:cisplatin 6:1, 5 min), 325.4 µM and 324.5 µM; in data set [3] (thiosulfate:cisplatin 6:1, 38 min), 286.4 µM and 293.2 µM. The “Cisplatin Concentration” value was 259.8 µM and 266.2 µM in data set [3] (thiosulfate:cisplatin 6:1, 71 min); 235.6 µM and 240.5 µM in data set [3] (thiosulfate:cisplatin 6:1, 104 min); 319.5 µM in data set [3] (thiosulfate:cisplatin 10:1, 4 min); 320.3 µM in data set [3] (thiosulfate:cisplatin 10:1, 5 min); 269.4 µM in data set [3] (thiosulfate:cisplatin 10:1, 37 min); 278.5 µM in data set [3] (thiosulfate:cisplatin 10:1, 38 min). Besides, the “Cisplatin Concentration” value amounted to 235.2 µM in data set [3] (thiosulfate:cisplatin 10:1, 70 min); 239.6 µM in data set [3] (thiosulfate:cisplatin 10:1, 71 min); 205.6 µM in data set [3] (thiosulfate:cisplatin 10:1, 103 min); 209.3 µM in data set [3] (thiosulfate:cisplatin 10:1, 104 min). Besides, in data set [4] (STS after a platinum based chemotherapeutic (e.g., cisplatin)), the “ototoxicity in pediatric patients” value is “significantly reduced ototoxicity”. Also, the hearing protection result in data set [4] (dose equivalent to 5.1 g/m^2 sodium thiosulfate for injection, preliminary clinical studies) is on record as “did not show hearing protection”. The prevention of ototoxicity result in data set [4] (doses equivalent to 6.4 to 12.8 g/m^2 sodium thiosulfate for injection) is reported as “prevented ototoxicity”. Moreover, the survival result in data set [4] (treatment 6 hours after completion of each CIS infusion) is “did not affect survival”. Further, the serum sodium levels entry in data set [5] (doses of STS equivalent to 12.8 g/m^2 sodium thiosulfate for injection) is given as “small, transient increase”. In data set [5] (pediatric patients treated with a platinum based chemotherapeutic), the “renal or other toxicities” value is recorded as “not exacerbate renal or other toxicities”. Also, the “distribution to the cochlea” value in data set [6] was “distribute to the cochlea”. In data set [7] (dependent on dose), the “biological half-life, range” value is on record as 16.5-182 minutes. In data set [7] (following IV administration), the biological half-life was 0.65 hours. In addition, the “excreted in the urine unmodified” value in data set [7] (following IV administration) is reported as “Up to 95%”. In addition, the “effect of STS on cytotoxicity of etoposide” value in data set [8] (immediate or delayed addition of STS, incubation for 72 hours) is recorded as “no reduction of cytotoxicity”. Also, the “effect of STS on anti-tumor activity of doxorubicin, carmustine (BCNU), paclitaxel, or methotrexate” value in data set [8] (similar studies) was “no reduction of anti-tumor activity”.
